Legend:
hTLR7 = target: T1, hTLR7 (Homo sapiens, UniProt Q9NYK1); assay: Human TLR antagonist screening, NF-κB SEAP reporter in HEK293 cells; format: cell-based; details: antagonist mode, test article 1 μM, +CL307 10 ng/ml, No Sample 13, Control− 1
T1 construct: expressed in transfected cells; host or cells: HEK293
T1 sequence (Q9NYK1 27-1049): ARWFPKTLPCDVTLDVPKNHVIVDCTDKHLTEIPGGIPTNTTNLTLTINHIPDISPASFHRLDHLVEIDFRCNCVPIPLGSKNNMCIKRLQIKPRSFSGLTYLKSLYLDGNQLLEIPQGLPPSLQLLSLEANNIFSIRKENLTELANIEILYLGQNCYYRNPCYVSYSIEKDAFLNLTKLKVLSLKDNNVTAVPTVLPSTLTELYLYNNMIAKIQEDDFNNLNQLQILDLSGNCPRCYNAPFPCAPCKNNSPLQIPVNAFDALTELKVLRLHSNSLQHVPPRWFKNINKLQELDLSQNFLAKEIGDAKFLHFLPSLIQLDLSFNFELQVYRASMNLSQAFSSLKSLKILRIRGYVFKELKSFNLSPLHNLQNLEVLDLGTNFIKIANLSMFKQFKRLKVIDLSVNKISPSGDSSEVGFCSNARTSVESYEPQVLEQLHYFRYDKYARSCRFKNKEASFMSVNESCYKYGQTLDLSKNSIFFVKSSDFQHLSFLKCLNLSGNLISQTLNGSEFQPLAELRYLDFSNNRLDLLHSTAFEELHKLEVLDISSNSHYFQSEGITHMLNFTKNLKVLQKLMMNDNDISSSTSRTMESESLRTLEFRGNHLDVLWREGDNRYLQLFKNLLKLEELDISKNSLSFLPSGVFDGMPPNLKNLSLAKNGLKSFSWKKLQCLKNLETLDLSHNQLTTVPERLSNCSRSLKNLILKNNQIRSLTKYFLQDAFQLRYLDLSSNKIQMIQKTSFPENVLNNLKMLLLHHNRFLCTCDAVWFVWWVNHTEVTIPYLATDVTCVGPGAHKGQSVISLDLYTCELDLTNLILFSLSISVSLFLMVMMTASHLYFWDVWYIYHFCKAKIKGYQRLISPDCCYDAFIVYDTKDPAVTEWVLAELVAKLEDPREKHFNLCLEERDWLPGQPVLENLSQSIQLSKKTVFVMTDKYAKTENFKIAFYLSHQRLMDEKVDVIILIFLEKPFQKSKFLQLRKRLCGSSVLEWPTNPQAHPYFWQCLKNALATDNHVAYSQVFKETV
Protocol: Toll-Like Receptor (TLR), NOD-Like Receptor (NLR) and C-Type Lectin Receptor (CLR) stimulation were tested by assessing NF-κB activation in HEK293 cells expressing a given TLR, NLR or CLR. The activity of the test articles was tested at one concentration and compared to control ligands. These steps were performed in triplicate. hTLR7: CL307 at 1 μg/mL Antagonist: 10 ng/mL. In a 96-well plate (200 μL total volume) containing the appropriate cells (50,000-75,000 cells/well), 20 μL of the test article or the positive control ligand was added to the wells. For the antagonist assay, the test article was incubated with the cells, at 37° C. with 5% CO2, for 30 minutes prior to the addition of the positive control ligand to the wells. The media added to the wells was designed for the detection of NF-κB induced SEAP expression. […] Fold induction (ratio of average induced value to average non-induced value) was determined for each TLR, NOD1, NOD2, Dectin-1a, Dectin-1b.

Human TLR3 = target: T2, Human TLR3 (Homo sapiens, UniProt O15455); assay: as above; format: cell-based; details: antagonist mode, test article 1 μM, +Poly(I:C) 50 ng/ml, No Sample 14, Control− 1
T2 construct: expressed in transfected cells; host or cells: HEK293
T2 sequence (O15455 24-904): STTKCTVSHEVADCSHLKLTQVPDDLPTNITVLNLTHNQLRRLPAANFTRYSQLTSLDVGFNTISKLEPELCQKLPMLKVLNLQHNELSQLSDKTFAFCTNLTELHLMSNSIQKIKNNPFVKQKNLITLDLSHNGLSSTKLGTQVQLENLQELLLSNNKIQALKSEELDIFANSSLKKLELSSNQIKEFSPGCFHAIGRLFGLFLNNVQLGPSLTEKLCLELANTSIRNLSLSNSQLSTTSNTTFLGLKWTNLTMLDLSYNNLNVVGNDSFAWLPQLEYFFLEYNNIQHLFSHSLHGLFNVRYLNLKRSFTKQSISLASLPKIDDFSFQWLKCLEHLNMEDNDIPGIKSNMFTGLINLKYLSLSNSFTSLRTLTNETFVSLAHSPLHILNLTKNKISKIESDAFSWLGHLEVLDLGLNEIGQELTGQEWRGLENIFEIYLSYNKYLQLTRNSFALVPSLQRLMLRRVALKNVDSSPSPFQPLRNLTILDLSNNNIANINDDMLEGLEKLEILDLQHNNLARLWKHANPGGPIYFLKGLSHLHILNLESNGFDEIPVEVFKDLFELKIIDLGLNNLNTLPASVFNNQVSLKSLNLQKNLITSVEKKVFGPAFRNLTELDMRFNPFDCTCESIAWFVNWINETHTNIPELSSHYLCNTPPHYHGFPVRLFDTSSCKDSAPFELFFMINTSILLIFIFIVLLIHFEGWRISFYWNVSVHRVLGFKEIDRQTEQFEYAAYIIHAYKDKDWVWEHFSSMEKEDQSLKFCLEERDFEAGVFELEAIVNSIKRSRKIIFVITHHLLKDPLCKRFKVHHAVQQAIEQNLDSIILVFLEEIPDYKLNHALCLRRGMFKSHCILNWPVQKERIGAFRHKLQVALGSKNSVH
Protocol: Toll-Like Receptor (TLR), NOD-Like Receptor (NLR) and C-Type Lectin Receptor (CLR) stimulation were tested by assessing NF-κB activation in HEK293 cells expressing a given TLR, NLR or CLR. The activity of the test articles was tested at one concentration and compared to control ligands. These steps were performed in triplicate. hTLR3: Poly(I:C) HMW at 1 μg/mL Antagonist: 50 ng/mL. In a 96-well plate (200 μL total volume) containing the appropriate cells (50,000-75,000 cells/well), 20 μL of the test article or the positive control ligand was added to the wells. For the antagonist assay, the test article was incubated with the cells, at 37° C. with 5% CO2, for 30 minutes prior to the addition of the positive control ligand to the wells. The media added to the wells was designed for the detection of NF-κB induced SEAP expression. After a 16-24 hr incubation the optical density (OD) was read at 650 nm on a Molecular Devices SpectraMax 340PC absorbance detector. Fold induction (ratio of average induced value to average non-induced value) was determined for each TLR, NOD1, NOD2, Dectin-1a, Dectin-1b.

Structure (SMILES) | Fold Induction (hTLR7) | Fold Induction (hTLR7; listed as Ami) | Fold Induction (Human TLR3) | Fold Induction (Human TLR3; listed as Ami) | Fold Induction (hTLR7; listed as Nor) | Fold Induction (Human TLR3; listed as Nor)
CN(C)CCC=C1c2ccccc2CCc2ccccc21 [Amitriptyline] | slight potentiating effect | 16 | slight inhibitory effect | 12 | – | –
CNCCC=C1c2ccccc2CCc2ccccc21 [Nortriptyline] | slight potentiating | – | slight inhibitory effect | – | 16 | 12
